# From EP4175633B1, “THIENO[3,4-C]PYRAZOL-3-YL […] AUTOTAXIN INHIBITORS” (Uni-Pharma Kleon Tsetis Pharmaceutical Laboratories S.A., priority 2020, dated 2022)
# Where two headings read alike, the source gives them in different places.
# Assays:
# mouse ATX = mouse ATX (Mus musculus, UniProt Q9R1E6); assay: Amplex Red activity assay (ATX inhibition, LPC hydrolysis); assay type: biochemical
# Experimental: (§1) In a similar approach to TOOS Activity Assay, this widely used method detects the ATX ability to hydrolyze LPC using a test that monitors choline release using Amplex Red fluorescent reagent (10 mM), choline oxidase (0.2 U/mL) and Radish Peroxidase (HRP - 2 U/mL). All reactions were conducted with 2 nM pure ATX and 50 µM LPC (16:0 or 18:0) at 37 °C. Inhibitors (3 mM) were dissolved in dimethyl sulfoxide (DMSO) at concentrations from 0.001 to 5 µmol/L. Fluorescence values were measured on a fluorescent plate reader (Tecan Infinite 200). IC50 values were determined using the values from two independent experiments, using the sigmoid dose-response curve (PrismH software) from the equation f = y0 + a / (1 + exp (- (x-x0) / b) given from SigmaPlot 11.0.
# (§2) Subsequently, 50 µL of a buffer solution containing 200 µM LPC 16:0 (final concentration 50 µM) were added to the reaction mixture followed by incubation for another 30 minutes at 37 °C. Finally, 50 µL of working solution containing 200 µM Amplex Red reagent and choline oxidase (0.2 U/mL) κα ? HRP (2 U/mL), in 50 mM Tris-HCl at pH 8.0 and 5 mM CaCl2, was added to begin the reaction. The reaction was monitored at 37 °C, in a fluorescence plate reader (Tecan Infinite 200) using excitation at 530 nm and reading at 590 nm, every five minutes for 30 minutes at 37°C. The IC50 value was calculated from two independent experiments, using the sigmoid dose-response curve (PrismH software) from the equation f=y0+a/(1+exp(-(x-x0)/b) given from SigmaPlot 11.0.
# as §2, with “was” for “were”, “Finally, 50 µL of working solution containing 200 µM Amplex Red reagent and choline oxidase (0.2 U/mL) κα ? HRP (2 U/mL), in 50 mM Tris-HCl at pH 8.0 and 5 mM CaCl2, was added to begin the reaction.” left out
# human ATX = human ATX (Homo sapiens, UniProt Q13822); assay: as above; assay type: biochemical
# Experimental: as §1, §2
# as §2, with “was” for “were”
# as §2, with “was” for “were”, “Finally, 50 µL of working solution containing 200 µM Amplex Red reagent and choline oxidase (0.2 U/mL) κα ? HRP (2 U/mL), in 50 mM Tris-HCl at pH 8.0 and 5 mM CaCl2, was added to begin the reaction.” left out
# as §2, with “was” for “were”, “Finally, 50 µL of working solution containing 200 µM Amplex Red reagent and choline oxidase (0.2 U/mL) κα ? HRP (2 U/mL), in 50 mM Tris-HCl at pH 8.0 and 5 mM CaCl2, was added to begin the reaction.” left out
# [1] = ATX final concentration 2 nM, LPC 16:0 50 µM, 37 °C, two independent experiments, read-out: IC50 value for the inhibition of mouse ATX
# [2] = human ATX final concentration 1 nM, LPC 16:0 50 µM, 37 °C, two independent experiments, read-out: IC50 value for human ATX inhibition
IC50 (mouse ATX; [1]) [µM],IC50 (human ATX; [2]) [µM],Compound,other results
,,O=C(O)c1ccc(-n2nc3c(c2NC(=O)c2cccc4ccccc24)CSC3)cc1 [A15],"IC50 (mouse ATX; mATX 2 nM (values without asterisk), read-out: IC50 (µM) (in mATX 2 nM)): 59.3 µM"
2.5,1.3,O=C(Nc1c2c(nn1-c1cnccn1)CSC2)c1cccc2ccccc12 [A14],
,7.5,O=C(Nc1c2c(nn1-c1ccncc1)CSC2)c1cccc2ccccc12 [A16],
,,O=C(Nc1c2c(nn1-c1ccc(Br)cc1)CSC2)c1cc(Cl)cc(Cl)c1 [A18],"IC50 (human ATX; values marked *: evaluation performed in human ATX (hATX) 1 nM, read-out: IC50 (µM) (in mATX 2 nM)): 2.5 µM"
12.7,3.5,O=C(Nc1c2c(nn1-c1ccc(Br)cc1)CSC2)c1cccc2ccccc12 [A4],

Compound,IC50 (mouse ATX; [1]) [µM],IC50 (human ATX; [2]) [µM],other results
COC(C(=O)Nc1c2c(nn1-c1ccc(Br)cc1)CSC2)(c1ccccc1)C(F)(F)F (centres unmarked) [A17],,2,
